Assay results reported in patent US20050244964A1, “Production of neural progenitor cells” (priority 2002, published 2005).

Key:
[1] = test system: Human ES cells; assay: TH+ cell immunostaining of adhered human ES cell embryoid bodies; assay type: cell-based; conditions: for formation of TH+ cells (in words): human ES embryoid bodies adhered and differentiated
Experimental: Collagenase/trypsin passaged ES cells were prepared as a single cell suspension and seeded at a density of 150 cells/μl in low attachment TC dishes (Costar). Cell aggregates were split 1:3 at day 2 and possibly at day 3 if required. Cultures were feed daily for 9 days and on day 9 bodies were transferred to poly-L-ornithine/laminin coated 24 well trays in 0.5 ml of medium if adhesive culture was to be conducted. Another 0.5 ml media was added to each well after 24 hours incubation. Adhered cultures or suspension cultures were fed daily for a further 8 days.
Embryoid bodies or neurospheres/aggregates are allowed to settle onto a coated surface to allow differentiation to occur (4 to 8 days). The coating can be on a plastic surface in either a tray or a coated coverslip.
The ability of basic media with supplements (DMEM +N2 or ITSS) to promote neural differentiation of hES cells was compared with medium that included F12: (DMEM:F12 (1:1) +N2 or ITSS)
Trypsinised Human ES cells were seeded at approximately 10 to 20 cells/μl of media into 10 ml of neurosphere media (DMEM:F12, 10 μg/ml heparin (SIGMA), 1/50 B27(GIBCO), 1/100 pen/strep, 1/100 ITSS) in a T75 culture flask. 10 ng/ml FGF2 was optionally added but the culture medium was preferably mitogen-free (no FGF2). Cultures were maintained in the media for 9 days after which the embryoid bodies were optionally transferred to poly-L-ornithine/laminin plates and cultured in the same media for a further 6 days. The embryoid bodies so formed (EB^15) whether from adherent or suspension culture, were then triturated to near single cell form and used for either transplantation or for the formation of neurospheres/cell reaggregates.
Example 5 was repeated utilising human ES cells and a minimal media consisting of DMEM and 100 μM L-proline as outlined in the schematic of FIG. 12. Results were similar to those described in Example 5.

[2] = test system: mouse ES cells; assay: Neural versus non-neural differentiation and neural complexity scoring of mouse ES cell embryoid bodies; assay type: cell-based; conditions: RA doses 1 μM and 10 nM compared with 100 nM
Text: FIG. 2A is a graph that illustrates the level of neural differentiation when retinoic acid and MEDII are and are not present. The first column (ICb−RA) used a standard media (ICb, see Example 2), where a high percentage of non-neural tissue (scored as beating muscle) was observed. […] The third column used a 50% MEDII conditioned media but without RA supplementation. […] The fourth column used 50% MEDII supplemented with RA.
FIG. 2B is similar to FIG. 2A except the level of neural complexity was scored. A score of 1 to 3 was assigned depending upon the neuronal complexity (number of neurites and networking emanating from the body), with a score of 3 for the most complex.
Single cell suspensions of mouse ES cells were cultured for 4 days in standard culture media (ICb) or in the presence of 50% MEDII. The standard conditioning media (ICb) contains 90 ml DMEM, 10 ml of foetal calf serum, 1 ml glutamine (0.1M stock at 1/100 dilution) and 100 ul of β-Mercaptoethanol (0.1M stock at 1/1000 dilution). The culture process involved media changes on days 2 and 4 involving a ½ splitting of the cell aggregates. […] This media change occurred every day for three days (i.e to EBM^7). By the end of this period the morphological differences in treatment when supplemented with combinations of 50% MEDII and/or RA were apparent. […]

Row | Compound | formation of TH+ cells (in words) [1] | proportion of TH+ cells ([1]; human ES embryoid bodies, 9 days suspension then adherent culture on laminin, with N2 or ITSS, L-proline 100 μM in DMEM) [%] | uniformity of RA effect on embryoid bodies [2]
1 | FGF2: fibroblast growth factor | little impact on the generation of TH+ cells | – | –
2 | O=C(O)[C@@H]1CCCN1 [L-proline] | high numbers of TH+cells | ~50 | –
3 | CC1=C(/C=C/C(C)=C/C=C/C(C)=C/C(=O)O)C(C)(C)CCC1 [RA, (all-E)-3,7-dimethyl-9-(2,6,6-trimethyl-1-cyclohexen-1-yl)-2,4,6,8-nonatetraenoic acid] | – | – | not as uniform as seen with 100 nM RA
